The target in test [1] is T1, MOZ-KAT6A (Homo sapiens, UniProt Q92794, A567V).
T1 construct: encoding amino acid residues 507 to 778 (Uniprot Q92794-1) of human KAT6A; made in house; host or cells: E. coli BL21 DE3
As to the kind of experiment: Acetyltransferase biochemical assay (AlphaScreen), KAT6A. The following applies: Table 2 (MOZ-KAT6A); 10 μM Acetyl coenzyme A, histone H3.1, 5 nM enzyme. (In general: In Alpha technology, singlet oxygen from a donor bead excites a nearby acceptor bead.)

The target of test [2] is T2, HBO-KAT7 (Homo sapiens, UniProt O95251).
T2 construct: encoding amino acid residues 325 to 611 (Uniprot 095251-1) of human KAT7; made in house; host or cells: E. coli BL21 DE3 RIL
Nature of the test: Acetyltransferase biochemical assay (AlphaScreen), KAT7. The following applies: Table 3 (HBO-KAT7); 0.4 μM Acetyl coenzyme A, histone H3.1, 40 nM enzyme.

The target in test [3] is T3, TIP60-KAT5 (Homo sapiens, UniProt Q92993).
T3 construct: encoding amino acid residues 2 to 461 (Uniprot Q92993-2) of human KAT5 isoform; made in house; host or cells: E. coli BL21 DE3
Nature of the test: Acetyltransferase biochemical assay (AlphaScreen), KAT5. The following applies: Table 1 (TIP60-KAT5); 0.4 μM Acetyl coenzyme A, histone H4, 10 nM enzyme.

In test [4] the target is T1, MOZ-KAT6A. Nature of the test: Revised Acetyltransferase Biochemical Assay, KAT6A. The following applies: Table 8 (MOZ-KAT6A), 1 μM Acetyl coenzyme A.
The target of test [5] is T3, TIP60-KAT5. As to the kind of experiment: Revised Acetyltransferase Biochemical Assay, KAT5. The following applies: 10 nM KAT5, 1 μM AcCoA, 100 nM histone H4, 90 min.
The target in test [6] is T2, HBO-KAT7. Nature of the test: Revised Acetyltransferase Biochemical Assay, KAT7. The following applies: Table 9 (HBO-KAT7), 1 μM Acetyl coenzyme A.
Test [7] deals with T4, MOF-KAT8 (Homo sapiens, UniProt Q9H7Z6).
T4 sequence (Q9H7Z6 177-447): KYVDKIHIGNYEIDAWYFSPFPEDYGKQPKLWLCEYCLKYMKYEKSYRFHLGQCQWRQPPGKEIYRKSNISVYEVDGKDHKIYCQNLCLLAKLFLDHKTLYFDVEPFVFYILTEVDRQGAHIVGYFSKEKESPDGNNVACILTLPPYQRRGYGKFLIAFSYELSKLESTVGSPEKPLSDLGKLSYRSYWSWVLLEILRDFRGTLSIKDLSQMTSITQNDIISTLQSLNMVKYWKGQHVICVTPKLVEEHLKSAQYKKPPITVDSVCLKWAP
As to the kind of experiment: Revised Acetyltransferase Biochemical Assay, KAT8.

T3 sequence (Q92993 2-461 isoform Q92993-2): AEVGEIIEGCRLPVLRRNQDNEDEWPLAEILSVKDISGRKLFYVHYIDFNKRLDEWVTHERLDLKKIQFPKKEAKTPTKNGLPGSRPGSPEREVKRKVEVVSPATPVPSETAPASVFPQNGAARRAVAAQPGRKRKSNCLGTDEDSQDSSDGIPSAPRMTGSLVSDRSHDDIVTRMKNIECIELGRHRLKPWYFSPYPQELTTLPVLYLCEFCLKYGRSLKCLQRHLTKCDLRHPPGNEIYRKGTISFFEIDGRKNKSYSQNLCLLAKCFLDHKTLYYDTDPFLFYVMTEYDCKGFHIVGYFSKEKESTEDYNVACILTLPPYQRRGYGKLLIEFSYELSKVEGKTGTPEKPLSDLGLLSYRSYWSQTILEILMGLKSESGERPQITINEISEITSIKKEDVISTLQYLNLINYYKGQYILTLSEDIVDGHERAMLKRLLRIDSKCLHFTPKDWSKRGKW
T1 sequence (Q92794 507-778 A567V limits assumed): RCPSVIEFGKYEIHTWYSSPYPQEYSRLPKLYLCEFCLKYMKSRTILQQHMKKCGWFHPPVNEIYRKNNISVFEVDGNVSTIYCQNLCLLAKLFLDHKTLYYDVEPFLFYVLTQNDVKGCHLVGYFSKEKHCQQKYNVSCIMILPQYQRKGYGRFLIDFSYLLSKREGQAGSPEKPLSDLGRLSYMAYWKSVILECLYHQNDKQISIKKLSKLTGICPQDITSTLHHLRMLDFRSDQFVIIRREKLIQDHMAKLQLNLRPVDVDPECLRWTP
T2 sequence (O95251 with tags, fused parts or gaps): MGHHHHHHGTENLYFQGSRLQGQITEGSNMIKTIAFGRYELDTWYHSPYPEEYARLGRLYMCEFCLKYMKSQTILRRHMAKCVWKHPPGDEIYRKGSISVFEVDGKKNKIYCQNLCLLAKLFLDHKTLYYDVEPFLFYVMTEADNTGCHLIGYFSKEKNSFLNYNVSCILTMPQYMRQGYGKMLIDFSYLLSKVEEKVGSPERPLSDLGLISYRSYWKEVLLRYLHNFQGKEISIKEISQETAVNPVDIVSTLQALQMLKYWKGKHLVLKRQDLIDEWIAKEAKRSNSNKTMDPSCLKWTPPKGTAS

As for `O=C(NCCc1ccccc1O)C1=Nc2ccccc2S(=O)(=O)N1` [Example 29, N-(2-Hydroxyphenethyl)-2H-benzo[e][1,2,4]thiadiazine-3-carboxamide 1,1-dioxide], the IC50 – broadly, the concentration that inhibits the measured activity by half – in test [1] was 28.6 µM; in test [2], 84.4 µM; in test [3], greater than 125 µM.
In the same order, the values of `O=C(NCCc1ccccc1I)C1=Nc2ccccc2S(=O)(=O)N1` [Example 31, N-(2-Iodophenethyl)-2H-benzo[e][1,2,4]thiadiazine-3-carboxamide 1,1-dioxide] are 8.23 µM, 5.84 µM and 15.1 µM.
In the case of `O=C(NCCc1ccccc1-c1cccnc1)C1=Nc2ccccc2S(=O)(=O)N1` [Example 34, N-(2-(Pyridin-3-yl)phenethyl)-2H-benzo[e][1,2,4]thiadiazine-3-carboxamide 1,1-dioxide], the IC50 in test [1] was 51.6 µM; in test [4], 5.78 µM; in test [5] it was 70.3 µM; in test [6], 11.5 µM; in test [2], 60.3 µM; in test [3], greater than 125 µM.
Turning to `N#Cc1ccccc1CCNC(=O)C1=Nc2ccccc2S(=O)(=O)N1` [Example 35, N-(2-Cyanophenethyl)-2H-benzo[e][1,2,4]thiadiazine-3-carboxamide 1,1-dioxide], the IC50 is 59.9 µM in test [1], 31.6 µM in test [2] and greater than 125 µM in test [3].
In the same order, the values of `O=C(NCC(c1ccccc1)n1cccc1)C1=Nc2ccccc2S(=O)(=O)N1` (stereo not shown) [Example 54, N-(2-phenyl-2-(1H-pyrrol-1-yl)ethyl)-2H-benzo[e][1,2,4]thiadiazine-3-carboxamide 1,1-dioxide] are 8.87 µM, 4.01 µM and 57.9 µM.
`O=C(NCC(c1ccccc1F)n1cccc1)C1=Nc2ccccc2S(=O)(=O)N1` (stereo not shown) [Example 55, N-(2-(2-fluorophenyl)-2-(1H-pyrrol-1-yl)ethyl)-2H-benzo[e][1,2,4]thiadiazine-3-carboxamide 1,1-dioxide]: the IC50 in test [1] turned out to be 5.66 µM; in test [2], 4.51 µM; in test [3], 36.5 µM.
As for `O=C(NCC(c1ccccc1)c1nc(CO)no1)C1=Nc2ccc(I)cc2S(=O)(=O)N1` (stereo not shown) [Example 59, N-(2-(3-(hydroxymethyl)-1,2,4-oxadiazol-5-yl)-2-phenylethyl)-7-iodo-2H-benzo[e][1,2,4]thiadiazine-3-carboxamide 1,1-dioxide], the IC50 in test [4] was 0.032 µM; in test [5], 0.721 µM; in test [6], 0.403 µM; in test [7], 26.8 µM.
As to `O=C(NCCc1ccccn1)C1=Nc2ccc(Br)cc2S(=O)(=O)N1` [Example 79], the IC50 in test [1] was 35.4 µM; in test [2], 29.5 µM; in test [3], 87.8 µM.
Taken in the same sequence, the figures for `O=C(NCCc1cccnc1)C1=Nc2ccc(Br)cc2S(=O)(=O)N1` [Example 80] were 58.8 µM, 104 µM and greater than 125 µM.
In the same order, the values of `O=C(NCC(c1ccccc1)c1ncco1)C1=Nc2cnccc2S(=O)(=O)N1` (stereo not shown) [Example 98] are 36.1 µM, 68.6 µM and greater than 125 µM.
In the same order, the values of `O=C(NCC(c1ccccc1)c1ncco1)C1=Nc2ncccc2S(=O)(=O)N1` (stereo not shown) [Example 99] are 15.8 µM, 9.16 µM and greater than 125 µM.
For `Nc1ccc(CCNC(=O)C2=Nc3ccc(I)cc3S(=O)(=O)N2)cc1` [Example 100], the IC50 in test [1] came out at 41.7 µM; in test [2] it was 112 µM; in test [3] it was 40.5 µM.
In the same order, the values of `O=C(NCCc1cccc(O)c1)C1=Nc2ccc(I)cc2S(=O)(=O)N1` [Example 102] are 10.6 µM, 60.2 µM and 27.1 µM.
Taken in the same sequence, the figures for `O=C(NCCc1ccccn1)C1=Nc2ccc(I)cc2S(=O)(=O)N1` [Example 107] were 12 µM, 23.3 µM and 20.8 µM.
Taken in the same sequence, the figures for `O=C(NCCc1cccnc1)C1=Nc2ccc(I)cc2S(=O)(=O)N1` [Example 108] were 11.6 µM, 50.1 µM and 77.7 µM.
Regarding `COC(=O)C(CNC(=O)C1=Nc2ccccc2S(=O)(=O)N1)c1ccccc1` (stereo not shown) [Example 112, Methyl 3-(1,1-dioxido-2H-benzo[e][1,2,4]thiadiazine-3-carboxamido)-2-phenylpropanoate], the concentration for half-maximal inhibition (IC50) in test [1] amounted to 4.58 µM; in test [2] it was 4.11 µM; in test [3] it was 18.5 µM.
For `O=C(NCCc1ccccc1C(F)(F)F)C1=Nc2ccc(I)cc2S(=O)(=O)N1` [Example 118], the IC50 was 0.046 µM in test [4]; 0.208 µM in test [5]; 0.412 µM in test [6]; 3.02 µM in test [2]; 2.29 µM in test [3]; greater than 125 µM in test [7].
Turning to `O=C(NCC(c1ccccc1)c1ncco1)C1=Nc2ccc(C(F)(F)F)cc2S(=O)(=O)N1` (stereo not shown) [Example 120], the IC50 was determined as 0.017 µM in test [4]; 0.224 µM in test [5]; 0.14 µM in test [6]; 3.52 µM in test [2]; 1.24 µM in test [3]; 41.5 µM in test [7].
As to `COC(=O)NC(CNC(=O)C1=Nc2ccccc2S(=O)(=O)N1)c1ccccc1` (stereo not shown) [Example 129], the concentration for half-maximal inhibition (IC50) in test [4] is 0.25 µM; in test [5], 58.3 µM; in test [6], 24.8 µM; in test [2] it was greater than 125 µM; in test [3] it was greater than 125 µM; in test [7], greater than 125 µM.
As to `O=C(NCC(c1ccccc1)c1ncco1)C1=Nc2ccc(-c3cscn3)cc2S(=O)(=O)N1` (stereo not shown) [Example 135], the IC50 in test [1] turned out to be 0.168 µM; in test [4], 0.047 µM; in test [5] it was 0.646 µM; in test [6] it was 0.419 µM; in test [2], 2.53 µM; in test [3] it was 3.13 µM.
On to `O=C(NCC(c1ncco1)c1ccccc1CO)C1=Nc2ccccc2S(=O)(=O)N1` (stereo not shown) [Example 157], for which the IC50 in test [4] is 8.8 µM; in test [5], greater than 125 µM; in test [6] it was 22.3 µM; in test [7], greater than 125 µM.
As for `O=C(NCC(c1cccc(-c2ccccc2)c1)c1ncco1)C1=Nc2ccccc2S(=O)(=O)N1` (stereo not shown) [Example 158], the IC50 in test [4] stood at 1.73 µM; in test [5], 26.8 µM; in test [6] it was 5.46 µM; in test [7] it was 30.7 µM.
Taken in the same sequence, the figures for `O=C(NCC(c1cccc(I)c1)c1ncco1)C1=Nc2ccccc2S(=O)(=O)N1` (stereo not shown) [Example 160, N-(2-(3-iodophenyl)-2-(oxazol-2-yl)ethyl)-2H-benzo[e][1,2,4]thiadiazine-3-carboxamide 1,1-dioxide] were 0.471 µM, 13.2 µM, 1.66 µM and 4.89 µM.
In the same order, the values of `O=C(NCC(c1ncco1)c1ccccc1-c1ccccc1)C1=Nc2ccccc2S(=O)(=O)N1` (stereo not shown) [Example 161] are 0.269 µM, 9.16 µM, 4.39 µM and 23 µM.
As to `CC(CNC(=O)C1=Nc2ccccc2S(=O)(=O)N1)(c1ccccc1)c1ccccc1` [Example 206], the IC50 was 9.64 µM in test [1]; 1.39 µM in test [4]; 13.7 µM in test [5]; 1.21 µM in test [6]; 7.17 µM in test [2]; 36.8 µM in test [3].
For `N#Cc1cccc(C(CNC(=O)C2=Nc3ccccc3S(=O)(=O)N2)c2ncco2)c1` (stereo not shown) [Example 227, N-(2-(3-Cyanophenyl)-2-(oxazol-2-yl)ethyl)-2H-benzo[e][1,2,4]thiadiazine-3-carboxamide 1,1-dioxide], the IC50 in test [4] was 1.36 µM; in test [5], 98.7 µM; in test [6], 4.49 µM; in test [7], greater than 125 µM.
In the same order, the values of `O=C(NCC(F)(F)c1ccccc1OC(F)F)C1=Nc2ccc(Cl)cc2S(=O)(=O)N1` [Example 232, 7-chloro-N-(2-(2-(difluoromethoxy)phenyl)-2,2-difluoroethyl)-2H-benzo[e][1,2,4]thiadiazine-3-carboxamide 1,1-dioxide] are 0.252 µM, 2.74 µM, 0.393 µM and 35 µM.

The values above are taken from patent US20210380548A1, “Fused [1,2,4]Thiadiazine Derivatives Which Act as KAT Inhibitors of the MYST Family” (CTxT Pty Limited, priority 2017, published 2021).
